Laboratory results taken from patent publication US7579371B2, “Methods of using [3.2.0] heterocyclic compounds and analogs thereof” (Nereus Pharmaceuticals, Inc., priority 2004, dated 2009).
Like-named read-outs stand apart in the source and are kept apart here.

Tests used:
p21 and p27 = experiment: Western blot of cell cycle regulatory proteins p21 and p27; format: cell-based, human; conditions: various concentrations, preliminary
Excerpt: The ubiquitin-proteasome pathway is an essential proteolytic system involved in cell cycle control by regulating the degradation of cyclins and cyclin-dependent kinase (Cdk) inhibitors such as p21 and p27. Pagano, et al., Science 269:682 (1995), Kisselev, et al., Chem Biol 8:739 (2001), King, et al., Science 274:1652 (1996). Furthermore, p21 and p27 protein levels are increased in the presence of proteasome inhibitors. Fukuchi, et al., Biochim Biophys Acta 1451:206 (1999), Takeuchi, et al, Jpn J Cancer Res 93:774 (2002).
The Western blots presented in FIG. 33 were reprobed using antibodies against p21 and p27 to determine the endogenous level of each protein and anti-Tubulin antibody was used to confirm equal loading of protein.

NCI-H292 = experiment: Cell growth inhibition assay (resazurin, 48 h); format: cell-based, human; conditions: NCI-H292, 48 h
[1] = molecular target: T1, human erythrocyte proteasomes, Caspase-like activity (Homo sapiens, UniProt P28072); experiment: Caspase-like activity of human erythrocyte proteasomes; format: biochemical
T1 construct: from tissue; host or cells: human erythrocytes

U266 = experiment: Cell growth inhibition assay (resazurin, 48 h); format: cell-based; conditions: Homo sapiens, U-266, 48 h, U266, 48 h
CYP2C9 = CYP2C9 (Homo sapiens, UniProt P11712); experiment: Preliminary P450 inhibition screen; conditions: tested at 10 μM
Sequence of CYP2C9 (P11712 whole entry): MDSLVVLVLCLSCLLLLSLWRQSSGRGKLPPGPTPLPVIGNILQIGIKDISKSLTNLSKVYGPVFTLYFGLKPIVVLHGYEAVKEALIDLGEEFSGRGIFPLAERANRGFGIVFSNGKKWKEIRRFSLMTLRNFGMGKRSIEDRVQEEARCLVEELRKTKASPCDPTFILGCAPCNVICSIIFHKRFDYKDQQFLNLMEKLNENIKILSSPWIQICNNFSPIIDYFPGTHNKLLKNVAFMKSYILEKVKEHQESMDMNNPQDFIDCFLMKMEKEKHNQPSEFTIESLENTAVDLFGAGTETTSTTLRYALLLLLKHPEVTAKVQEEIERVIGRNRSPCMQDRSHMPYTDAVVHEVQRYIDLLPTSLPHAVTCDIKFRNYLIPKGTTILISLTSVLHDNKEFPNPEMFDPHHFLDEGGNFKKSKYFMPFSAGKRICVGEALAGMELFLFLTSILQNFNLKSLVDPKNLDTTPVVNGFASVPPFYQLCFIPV
Excerpt: (§1) These studies consisted of solubility assessment, LogD^7.4 determination and a preliminary screen to detect cytochrome P450 enzyme inhibition.

CYP3A4 = CYP3A4 (Homo sapiens, UniProt P08684); experiment: Preliminary P450 inhibition screen; conditions: tested at 10 μM
Sequence of CYP3A4 (P08684 whole entry): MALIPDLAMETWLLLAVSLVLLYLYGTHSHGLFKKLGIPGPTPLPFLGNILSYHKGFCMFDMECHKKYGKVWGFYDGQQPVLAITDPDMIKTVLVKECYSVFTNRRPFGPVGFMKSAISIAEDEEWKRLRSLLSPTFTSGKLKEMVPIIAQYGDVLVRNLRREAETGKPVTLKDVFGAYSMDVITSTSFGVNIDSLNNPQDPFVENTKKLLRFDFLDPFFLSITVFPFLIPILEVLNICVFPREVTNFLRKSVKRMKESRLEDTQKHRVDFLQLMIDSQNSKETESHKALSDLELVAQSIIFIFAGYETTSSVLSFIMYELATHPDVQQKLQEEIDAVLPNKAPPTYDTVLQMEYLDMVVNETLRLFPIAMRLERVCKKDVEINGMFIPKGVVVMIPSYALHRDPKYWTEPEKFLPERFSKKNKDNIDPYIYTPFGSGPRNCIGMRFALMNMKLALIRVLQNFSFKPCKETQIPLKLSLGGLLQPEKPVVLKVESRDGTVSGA
Excerpt: as §1

[2] = molecular target: T2, human erythrocyte proteasomes, Trypsin-like activity (Homo sapiens, UniProt Q99436); experiment: Trypsin-like activity of human erythrocyte proteasomes; format: biochemical
T2 construct: from tissue; host or cells: human erythrocytes

[3] = molecular target: T3, 20S proteasome chymotrypsin-like activity in PC-3 cells (Homo sapiens, UniProt P28074); experiment: Chymotrypsin-like activity of 20S proteasomes in treated PC-3 cells; format: cell-based; conditions: 5 nM, 1 hr
T3 construct: PC-3 (ATCC, CRL-1435), the human prostate cancer cell line; host or cells: PC-3
T3 sequence (P28074 60-263): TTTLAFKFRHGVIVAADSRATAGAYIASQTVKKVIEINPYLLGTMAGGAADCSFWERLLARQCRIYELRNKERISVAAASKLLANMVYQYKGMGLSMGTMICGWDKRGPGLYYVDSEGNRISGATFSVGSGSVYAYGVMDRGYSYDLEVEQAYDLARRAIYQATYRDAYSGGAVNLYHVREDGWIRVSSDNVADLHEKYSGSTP
Protocol: PC-3 (ATCC, CRL-1435), the human prostate cancer cell line, was cultured in F12K medium supplemented with 2 mM L-glutamine, 100 units/ml penicillin, 100 μg/ml streptomycin and 10% heat inactivated fetal bovine serum at 37° C., 5% CO2 and 95% humidified air. […] DMSO was used as the vehicle control at a final concentration of 0.1%. Following 1 hr incubation of PC-3 cells with the compounds, the cells were washed 3× with ice-cold 1× Dulbecco's Phosphate-Buffered Saline (DPBS, Mediatech, Herndon, Va.). […] Cell debris was pelleted by centrifugation at 14,000 rpm for 10 min, 4° C. and supernatants (=cell lysates) were transferred to a new tube. Protein concentration was determined by the BCA protein assay kit (Pierce Biotechnology, Rockford, Ill.). […] The released coumarin (AMC) was measured fluorometrically by using λex=390 nm and λem=460 nm. The assay was performed in a microtiter plate (Corning 3904) and followed kinetically with measurements every five minutes for 2 hr. The total amount of protein used for each assay was 20 μg. The final concentration of Suc-LLVY-AMC and DMSO was 20 μM and 0.2%, respectively. Results are presented as the percent inhibition of the 20S proteasome chymotrypsin-like activity relative to the DMSO control.

tumor cell lines = experiment: Growth inhibition / cytotoxicity, summary over tumor cell lines; format: cell-based
[4] = molecular target: T4, proteasome chymotrypsin-like activity in packed whole blood lysate (Mus musculus, UniProt O55234); experiment: Proteasome activity in packed whole blood lysate (PWBL) of treated mice; format: in vivo; conditions: 90 minutes
T4 construct: The supernatant (Packed Whole Blood Lysate, PWBL) was transferred to a fresh tube; from tissue; host or cells: packed whole blood cells of Swiss-Webster mice (lysate)
T4 sequence (O55234 60-264): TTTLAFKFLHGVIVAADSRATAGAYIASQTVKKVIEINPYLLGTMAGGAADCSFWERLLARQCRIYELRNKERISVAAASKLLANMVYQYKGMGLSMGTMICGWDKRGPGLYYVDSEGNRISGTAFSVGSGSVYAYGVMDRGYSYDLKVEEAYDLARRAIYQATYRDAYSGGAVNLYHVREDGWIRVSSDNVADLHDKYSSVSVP
Protocol: In brief, frozen whole blood samples were thawed on ice for one hour, and resuspended in 700 μL of ice cold 5 mM EDTA, pH 8.0 in order to lyse the cells by hypotonic shock. This represents approximately 2-3 times the volume of the packed whole blood cells. Lysis was allowed to proceed for one hour, and the cellular debris was removed by centrifugation at 14,000×g for 10 minutes. The supernatant (Packed Whole Blood Lysate, PWBL) was transferred to a fresh tube, and the pellet discarded. Protein concentration of the PWBL was determined by BCA assay (Pierce) using BSA as a standard.
Proteasome activity was determined by measuring the hydrolysis of a fluorogenic substrate specific for the chymotrypsin-like activity of proteasomes (suc-LLVY-AMC, Bachem Cat. I-1395). […] Hydrolysis of the substrate results in the release of free AMC, which was measured fluorometrically by using λex=390 nm and λem=460 nm. The rate of hydrolysis in this system is linear for at least one hour. The hydrolysis rate of each sample is then normalized to relative fluorescent units per milligram of protein (RFU/mg).
The vehicle control consisted of 2% DMSO in 10% solutol. […] Packed whole blood cells were collected by centrifugation, washed with PBS, and re-centrifuged. All samples were stored at −80° C. prior to the evaluation of the proteasome activity. […]

Jurkat cells = experiment: Cytotoxicity against Jurkat cells; format: cell-based, human
multiple myeloma cells = experiment: Transwell migration assay, VEGF-induced migration; format: cell-based
Protocol: The compounds disclosed herein inhibit angiogenesis. […] The other compounds disclosed herein are tested in a transwell mighration assay and inhibit migration.

HL-60 = experiment: cells; conditions: Homo sapiens, HL-60, 48 h
MES-SA = experiment: Cell growth inhibition assay (resazurin, 48 h); format: cell-based, human

C[C@@]12OC(=O)[C@]1([C@@H](O)[C@@H]1C=CCCC1)NC(=O)[C@@H]2CCCl [Formula II-16, Salinosporamide A]
p21 and p27 protein levels (p21 and p27): elevated | EC50 (NCI-H292; Homo sapiens): 0.097 µM | EC50 (NCI-H292): 0.066 ± 0.029 µM | EC50 [1]: ~0.39 µM | EC50 (U266): 0.0047 ± 0.0007 µM | inhibition of CYP2C9 (CYP2C9): 6% | inhibition of CYP3A4 (CYP3A4): 6% | EC50 [2]: ~0.009 µM | % inhibition of the chymotrypsin-like activity of 20S proteasomes in PC-3 cell lysates [3]: 69% | EC50 (tumor cell lines; RPMI 8226, PC-3, DU 145, 48 hour, read-out: EC50 values against RPMI 8226 and the prostate cell lines, range): 0.01 to 0.037 µM | EC50 (tumor cell lines; read-out: EC50 values for cytotoxicity, range): 0.01 to 0.2 µM | proteasomal activity in PWBL after oral administration [4]: active upon oral administration | % max cell kill (Jurkat cells): 97% | EC50 (Jurkat cells; Homo sapiens): 0.01 µM | VEGF-induced migration of multiple myeloma cells (multiple myeloma cells): blocked | EC50 (HL-60): 0.027 µM | % cytotoxicity (MES-SA): 94 ± 1% | EC50 (MES-SA; Homo sapiens, 48 h): 0.02 ± 0.005 µM
